Measurements reported in patent US8372971B2, “Heterocyclic compounds and methods of use” (TargeGen, Inc., priority 2004, dated 2013).
Counter-ions that a name gives are not always drawn. Like-named read-outs stand apart in the source and are kept apart here.

How the values were obtained:
[1] = tested on: p-MEK and p-ERK levels in HUVECs; assay: Western Blot, inhibition of MAPK pathway in cellular assay (Example 105); format: cell-based, human; settings: 50 ng/ml VEGF or FGF
Protocol: Some compounds described by the general structure (B) were tested for inhibition of MAPK pathway in cellular assay. Western Blot: Early passage primary human umbilical vein endothelial cells (HUVECs) were maintained in EGM-2 containing SingleQuots (Cambrex, East Rutherford, N.J.), 10% FBS, 10 mM HEPES, and 50 μg/ml gentamicin. Prior to treatment of the cells with inhibitor, the HUVECs were starved for 18 h by replacing serum-containing complete media with serum-free and SingleQuot-free media. The starved cells were pre-treated with inhibitors for 60 min at various concentrations (0-20 μM). Next the HUVECs were treated with 50 ng/ml VEGF or FGF (Peprotech, Rocky Hill, N.J.) for 6 min and the cells were immediately washed with ice-cold PBS. Cells were lysed with ice-cold RIPA buffer containing 100 mM Tris pH 7.5, 150 mM NaCl, 1 mM EDTA, 1% deoxycholate, 1% Triton X-100, 0.1% SDS, 2 mM PMSF, one Complete-Mini protease inhibitor tablet (Roche, Indianapolis, Ind.; 1 tablet/7 ml of lysis buffer) and the phophatase inhibitors NaF (500 mM) and orthovanadate (1 mM). The cells were scraped and lysates transferred and centrifuged at 15,000 g for 10 main. Supernatants were transferred to new tubes and protein concentration was quantitated using the BCA protein reagent (Pierce, Rockford, Ill.). Cell lysates containing 20 μg of total protein were separated by 10% SDS-PAGE, transferred to nitrocellulose, and blocked in 5% milk in TBST. Anti phospho-ERK Thr 202/Tyr 204 (Cell Signaling, Beverly, Mass.), anti-phospho-MEK Ser217/221 (Cell Signaling), and c-Raf (BD Biosciences Pharmingen, San Diego, Calif.) used as primary antibodies were detected with horseradish peroxidase-conjugated goat anti-mouse or rabbit secondary antibodies and bands were visualized using the SuperSignal West Pico chemiluminescence reagent system (Pierce) and Kodak X-ray film (Rochester, N.Y.).

[2] = tested on: HUVECs; assay: XTT cell viability assay (Example 106); format: cell-based, human; settings: 72 hours, read-out: Inhibition of HUVEC cell prolifiration (IC50)
Protocol: Some compounds described by the general structure (B) were tested for cell viability. XTT assay: HUVECs were seeded at 10,000 cells/well of a tissue culture treated 96-well plate treated with collagen type I and grown overnight in the complete EGM-2 media as described above. The following morning, the inhibitors were serial diluted with DMSO and added to the cells with a final DMSO concentration of 1%. After 72 hours cell viability was measured with an XTT assay (Sigma, St. Louis, Mo.). The cells were also photographed to compare morphological differences to the XTT trends observed. Determination of the IC50 values was performed with quantitative software (Prism software package, GraphPad Software, San Diego Calif.).

In the case of `O=C(Nc1nnc(-c2ccc(Oc3cccnc3)cc2)o1)c1cccc(OC(F)(F)F)c1` [N-{5-[4-(pyridin-3-yloxy)phenyl]-1,3,4-oxadiazol-2-yl}-3-(trifluoromethoxy)-benzamide], the “Western Blot” value ([1]; at 10 uM) is reported as “not active at 10 uM” and the IC50 ([2]; Homo sapiens, HUVEC) is reported as over 40 µM.

`O=C(Nc1nnc(-c2ccc(Oc3cccnc3)cc2)o1)c1cccc(C(F)(F)F)c1` [N-{5-[4-(pyridin-3-yloxy)phenyl]-1,3,4-oxadiazol-2-yl}-3-(trifluoromethyl)benzamide] was tested, and the “Western Blot” value ([1]; at 10 uM) was “active at 10 uM” and the IC50 ([2]; Homo sapiens, HUVEC) was over 40 µM.

With `FC(F)(F)c1cc(Nc2nnc(-c3ccc(Oc4cccnc4)cc3)o2)ccc1Cl` [N-[4-chloro-3-(trifluoromethyl)phenyl]-5-[4-(pyridin-3-yloxy)phenyl]-1,3,4-oxadiazol-2-amine trifluoroacetate salt] the “Western Blot” value ([1]; at 5 uM) was “active at 5 uM” and the IC50 ([2]; Homo sapiens, HUVEC) was 1.72 µM.

In the case of `O=C(Nc1nnc(-c2ccc(Oc3cccnc3)cc2)o1)c1cc(C(F)(F)F)cc(Cl)c1F` [3-Chloro-2-fluoro-N-{5-[4-pyridin-3-yloxy)phenyl]-1,3,4-oxadiazol-2-yl}-5-trifluoromethyl)-benzamide], the “Western Blot” value ([1]; at 10 uM) is reported as “not active at 10 uM” and the IC50 ([2]; Homo sapiens, HUVEC) is reported as over 40 µM.

In the case of `Nc1cc(Oc2ccc(-c3nnc(Nc4ccc(Cl)cc4)o3)cc2)nc(N)n1` [6-(4-{5-[(4-chlorophenyl)amino]-1,3,4-oxadiazol-2-yl}phenoxy) pyrimidine-2,4-diamine], the “Western Blot” value ([1]; at 5 uM) is reported as “active at 5 uM” and the IC50 ([2]; Homo sapiens, HUVEC) is reported as 2.6 µM.

`FC(F)(F)c1cc(Nc2nnc(-c3ccc(Oc4ccncc4)cc3)o2)ccc1Cl` [N-[4-chloro-3-(trifluoromethyl)phenyl]-5-[4-(pyridin-4-yloxy)phenyl]-1,3,4-oxadiazol-2-amine trifluoroacetate salt] was tested, and the “Western Blot” value ([1]; at 5 uM) was “active at 5 uM” and the IC50 ([2]; Homo sapiens, HUVEC) was 8.6 µM.

Compound `Nc1ccc(Oc2ccc(-c3nnc(Nc4ccc(OC(F)(F)F)cc4)[nH]3)cc2)nn1` [6-{4-[5-(4-trifluoromethoxy-phenylamino)-4H-[1,2,4]triazol-3-yl]-phenoxy}-pyridazin-3-ylamine trifluoroacetic acid salt] has an IC50 ([2]; Homo sapiens, HUVEC) of over 20 µM.

For `CNC(=O)c1cc(Oc2ccc(-c3nnc(Nc4ccc(Cl)c(C(F)(F)F)c4)[nH]3)cc2)ccn1` [4-{4-[5-(4-chloro-3-trifluoromethyl-phenylamino)-4H-[1,2,4]triazol-3-yl]-phenoxy}-pyridine-2-carboxylic acid methylamide trifluoroacetic acid salt], the “Western Blot” value ([1]; at 10 uM) was “active at 10 uM” and the IC50 ([2]; Homo sapiens, HUVEC) was 2.85 µM.

In the case of `O=C(Nc1nnc(-c2ccc(Oc3cccnc3)cc2)o1)c1ccccc1OC(F)(F)F` [N-{5-[4-(pyridin-3-yloxy)phenyl]-1,3,4-oxadiazol-2-yl}-2-(trifluoromethoxy)-benzamide], the “Western Blot” value ([1]; at 10 uM) is reported as “not active at 10 uM” and the IC50 ([2]; Homo sapiens, HUVEC) is reported as about 20 µM.

For `Nc1cc(Oc2ccc(-c3nnc(Nc4cccc(C(F)(F)F)c4)o3)cc2)nc(N)n1` [6-[4-(5-{[3-(trifluoromethyl)phenyl]amino}-1,3,4-oxadiazol-2-yl)phenoxy}pyrimidine-2,4-diamine], the “Western Blot” value ([1]; at 5 uM) was “active at 5 uM” and the IC50 ([2]; Homo sapiens, HUVEC) was over 10 µM.

Compound `FC(F)(F)c1cc(-c2nnc(Nc3ccc(Oc4ccncc4)cc3)[nH]2)ccc1Cl` [5-[4-chloro-3-(trifluoromethyl)phenyl]-N-[4-(pyridine-4-yloxy)phenyl]-4H-1,2,4-triazol-3-amine trifluoroacetate salt] has an IC50 ([2]; Homo sapiens, HUVEC) of over 40 µM.

`FC(F)(F)c1cc(-c2nnc(Nc3ccc(Oc4cccnc4)cc3)[nH]2)ccc1Cl` [5-[4-chloro-3-(trifluoromethyl)phenyl]-N-[4-(pyridine-3-yloxy)phenyl]-4H-1,2,4-triazol-3-amine trifluoroacetate salt] was tested, and the “Western Blot” value ([1]; at 5 uM) was “active at 5 uM” and the IC50 ([2]; Homo sapiens, HUVEC) was over 40 µM.

For `Nc1cc(Oc2ccc(Nc3nnc(-c4ccc(OC(F)(F)F)cc4)[nH]3)cc2)nc(N)n1` [6-[4-({5-[4-(trifluoromethoxy)-phenyl-4H-1,2,4-triazol-3-yl}amino)phenoxy]pyrimidine-2,4-diamine], the “Western Blot” value ([1]; concentration not given) was “not active” and the IC50 [2] was 6.58 µM.

With `FC(F)(F)c1cc(Nc2nnc(-c3cccc(Oc4ccncc4)c3)[nH]2)ccc1Cl` [(4-chloro-3-trifluoromethyl-phenyl)-{5-[3-(pyridin-4-yloxy)-phenyl]-4H-[1,2,4]triazol-3-yl}-amine trifluoroacetic acid salt] the “Western Blot” value ([1]; at 5 uM) was “active at 5 uM” and the IC50 ([2]; Homo sapiens, HUVEC) was 1.79 µM.

In the case of `FC(F)(F)c1cc(-c2nnc(Nc3ccc(Oc4cncnc4)cc3)[nH]2)ccc1Cl` [5-[4-chloro-3-(trifluoromethyl)phenyl]-N-[4-(pyrimidin-5-yloxy)phenyl]-4H-1,2,4-triazol-3-anine trifluoroacetate salt], the “Western Blot” value ([1]; at 5 uM) is reported as “active at 5 uM” and the IC50 ([2]; Homo sapiens, HUVEC) is reported as over 10 µM.

With `FC(F)(F)c1cccc(Nc2nnc(-c3ccc(Oc4cccnc4)cc3)o2)c1` [5-[4-(Pyridin-3-yloxy)phenyl]-N-[3-trifluoromethyl-phenyl]-1,3,4-oxadiazol-2-amine] the “Western Blot” value ([1]; at 10 uM) was “active at 10 uM” and the IC50 ([2]; Homo sapiens, HUVEC) was over 20 µM.

For `CNC(=O)c1cc(Oc2ccc(-c3nnc(Nc4ccc(Cl)c(C(F)(F)F)c4)o3)cc2)ccn1` [4-[4-(5-{[4-chloro-3-(trifluoromethyl)phenyl]amino}-1,3,4-oxadiazol-2-yl)phenoxy]-N-methylpyridine-2-carboxamide trifluoroacetate salt], the “Western Blot” value ([1]; at 5 uM) was “active at 5 uM” and the IC50 ([2]; Homo sapiens, HUVEC) was 5.6 µM.

Compound `CNC(=O)c1cc(Oc2ccc(-c3nnc(Nc4ccc(OC(F)(F)F)cc4)[nH]3)cc2)ccn1` [4-{4-[5-(4-trifluoromethoxy-phenylamino)-4H-[1,2,4]triazol-3-yl]-phenoxy}-pyridine-2-carboxylic acid methylamide trifluoroacetic acid salt] has an IC50 ([2]; Homo sapiens, HUVEC) of over 40 µM.

For `Nc1cc(Oc2ccc(-c3nnc(Nc4cc(C(F)(F)F)ccc4Cl)o3)cc2)nc(N)n1` [6-(4-{5-[(2-chloro-5-trifluoromethyl-phenyl)amino]-1,3,4-oxadiazol-2-yl}phenoxy)pyrimidine-2,4-diamine], the IC50 ([2]; Homo sapiens, HUVEC) was about 20 µM.

`FC(F)(F)Oc1ccc(Nc2nnc(-c3ccc(Oc4ccncc4)cc3)[nH]2)cc1` [{5-[4-(pyridin-4-yloxy)-phenyl]-4H-[1,2,4]triazol-3-yl]-(4-trifluoromethoxy-phenyl)-amine trifluoroacetic acid salt] gave an IC50 ([2]; Homo sapiens, HUVEC) of over 40 µM.

Compound `Nc1cc(Oc2ccc(-c3nnc(Nc4ccc(OC(F)(F)F)cc4)[nH]3)cc2)nc(N)n1` [6-{4-[5-(4-trifluoromethoxy-phenylamino)-4H-[1,2,4]triazol-3-yl]-phenoxy}-pyrimidine-2,4-diamine trifluoroacetic acid salt] has an IC50 ([2]; Homo sapiens, HUVEC) of 6 µM.

In the case of `Nc1ccc(Oc2ccc(-c3nnc(Nc4ccc(Cl)c(C(F)(F)F)c4)[nH]3)cc2)nn1` [6-{4-[5-(4-chloro-3-trifluoromethyl-phenylamino)-4H-[1,2,4]triazol-3-yl]-phenoxy}-pyridazin-3-ylamine trifluoroacetic acid salt], the IC50 ([2]; Homo sapiens, HUVEC) is reported as 1.79 µM.

In the case of `CNC(=O)c1cc(Oc2ccc(Nc3nnc(-c4ccc(OC(F)(F)F)cc4)[nH]3)cc2)ccn1` [4-{4-[5-(4-trifluoromethoxy-phenyl)-4H-[1,2,4]triazol-3-ylamino]-phenoxy}-pyridine-2-carboxylic acid methylamide trifluoroacetic acid salt], the IC50 ([2]; Homo sapiens, HUVEC) is reported as 2.2 µM.

With `CNC(=O)c1cc(Oc2cccc(-c3nnc(Nc4ccc(Cl)c(C(F)(F)F)c4)[nH]3)c2)ccn1` [4-{3-[5-(4-chloro-3-trifluoromethyl-phenylamino)-4H-[1,2,4]triazol-3-yl]-phenoxy}-pyridine-2-carboxylic acid methylamide trifluoroacetic acid salt] the IC50 ([2]; Homo sapiens, HUVEC) was over 20 µM.

In the case of `FC(F)(F)c1ccc(Cl)c(Nc2nnc(-c3ccc(Oc4cncnc4)cc3)o2)c1` [5-[4-(Pyrimidin-5-yloxy)phenyl]-N-[2-chloro-5-(trifluoromethyl)-phenyl]-1,3,4-oxadiazol-2-amine], the IC50 ([2]; Homo sapiens, HUVEC) is reported as about 20 µM.

Work on `CNC(=O)c1cc(Oc2ccc(Nc3nnc(-c4ccc(Cl)c(C(F)(F)F)c4)[nH]3)cc2)ccn1` [4-[4-({5-[4-chloro-3-(trifluoromethyl)phenyl]-4H-1,2,4-triazol-3-yl}amino)phenoxy]-N-methylpyridine-2-carboxamide trifluoroacetate salt] yielded an IC50 ([2]; Homo sapiens, HUVEC) of over 40 µM.
